In ChEMBL document CHEMBL4219027, “Lead Optimization of Benzoxepin-Type Selective Estrogen Receptor (ER) Modulators and Downregulators with Subtype-Specific ERα and ERβ Activity” (J Med Chem, 2018):
The source made the active and inactive calls. The rule behind the calls is not given here.

Legend:
[1] = target: T1, Estrogen receptor (Homo sapiens, UniProt P03372); experiment: Displacement of fluorescein-labeled estradiol (fluoromone) from human recombinant full-length estrogen receptor alpha after 2 hrs by fluorescence polarization assay
T1 sequence (P03372 whole entry): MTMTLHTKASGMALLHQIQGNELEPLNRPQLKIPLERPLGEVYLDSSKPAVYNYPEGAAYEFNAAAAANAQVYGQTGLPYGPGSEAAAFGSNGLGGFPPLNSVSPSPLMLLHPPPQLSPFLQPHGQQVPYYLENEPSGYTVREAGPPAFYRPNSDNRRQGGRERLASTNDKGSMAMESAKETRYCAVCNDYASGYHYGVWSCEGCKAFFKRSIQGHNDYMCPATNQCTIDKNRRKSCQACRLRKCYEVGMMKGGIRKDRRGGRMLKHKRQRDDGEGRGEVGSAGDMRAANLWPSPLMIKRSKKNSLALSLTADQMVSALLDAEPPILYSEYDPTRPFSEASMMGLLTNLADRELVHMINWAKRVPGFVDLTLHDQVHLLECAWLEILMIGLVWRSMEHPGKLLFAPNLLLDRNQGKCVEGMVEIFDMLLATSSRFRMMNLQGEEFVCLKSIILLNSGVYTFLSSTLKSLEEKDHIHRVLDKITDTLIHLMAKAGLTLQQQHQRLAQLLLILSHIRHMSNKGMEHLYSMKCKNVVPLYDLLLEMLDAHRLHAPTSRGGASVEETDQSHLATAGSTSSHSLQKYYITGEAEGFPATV

[2] = organism: Homo sapiens; experiment: Selectivity index, ratio of IC50 for human recombinant full-length estrogen receptor beta to IC50 for human recombinant full-length estrogen receptor alpha
[3] = target: T2, Estrogen receptor beta (Homo sapiens, UniProt Q92731)
[4] = test system: MCF7; experiment: cells; settings: Homo sapiens, MCF7, 72 h
Description: Antiproliferative activity against ER-dependent human MCF7 cells after 72 hrs by MTT assay

[5] = target: T3, Estrogen receptor (Homo sapiens, UniProt Q92731+P03372); experiment: Antagonist activity at estrogen receptor alpha/beta in human Ishikawa cells after 72 hrs by alkaline phosphatase assay; format: cell-based
[6] = target: T3, Estrogen receptor; experiment: Estrogenic activity at estrogen receptor alpha/beta in human Ishikawa cells at 0.01 uM after 72 hrs by alkaline phosphatase assay relative to estradiol; format: ADME, cell-based
[7] = test system: MCF7; experiment: cells; settings: Homo sapiens
Description: Cytotoxicity against human MCF7 cells assessed as reduction in cell viability after 3 to 12 days by MTT assay

[8] = target: T2, Estrogen receptor beta; experiment: Antagonist activity at estrogen receptor beta in human Ishikawa cells after 72 hrs by alkaline phosphatase assay; format: cell-based
[9] = target: T2, Estrogen receptor beta; experiment: Downregulation of estrogen receptor beta protein levels in human MCF7 cell lysate at 10 uM after 24 hrs by Western blot analysis
[10] = test system: MCF-10A; experiment: Cytotoxicity against human MCF10A cells assessed as reduction in cell viability at 1 to 10 uM after 24 to 48 hrs by CytoTox 96 non-radioactive LDH cytotoxicity assay; format: cell-based
[11] = target: T4, Estrogen receptor (Homo sapiens) (UniProt P03372); experiment: Downregulation of estrogen receptor alpha protein levels in human MCF7 cell lysate at 10 uM after 24 hrs by Western blot analysis
T4 sequence (whole entry): T1 sequence (P03372 whole entry)

[12] = target: T2, Estrogen receptor beta; experiment: Estrogenic activity at estrogen receptor beta in human Ishikawa cells at 1 uM after 72 hrs by alkaline phosphatase assay relative to estradiol; format: cell-based
[13] = target: estrogen receptor alpha/beta (Homo sapiens, UniProt P03372+Q92731); experiment: Estrogenic activity at estrogen receptor alpha/beta in human Ishikawa cells at 100 uM after 72 hrs by alkaline phosphatase assay relative to estradiol; format: ADME, cell-based; settings: read-out: Activity
[14] = test system: MCF-10A; experiment: Cytotoxicity against human MCF10A cells assessed as reduction in cell viability at 1 to 2 uM after 24 to 48 hrs by CytoTox 96 non-radioactive LDH cytotoxicity assay; format: cell-based
[15] = test system: MCF-10A; experiment: Cytotoxicity against human MCF10A cells assessed as reduction in cell viability at 5 uM after 24 hrs by CytoTox 96 non-radioactive LDH cytotoxicity assay; format: cell-based
[16] = test system: MCF-10A; experiment: Cytotoxicity against human MCF10A cells assessed as reduction in cell viability at 10 uM after 24 to 48 hrs by CytoTox 96 non-radioactive LDH cytotoxicity assay; format: cell-based
[17] = target: T3, Estrogen receptor; experiment: Estrogenic activity at estrogen receptor alpha/beta in human Ishikawa cells at 10 uM after 72 hrs by alkaline phosphatase assay relative to estradiol; format: ADME, cell-based

T2 sequence (Q92731 whole entry): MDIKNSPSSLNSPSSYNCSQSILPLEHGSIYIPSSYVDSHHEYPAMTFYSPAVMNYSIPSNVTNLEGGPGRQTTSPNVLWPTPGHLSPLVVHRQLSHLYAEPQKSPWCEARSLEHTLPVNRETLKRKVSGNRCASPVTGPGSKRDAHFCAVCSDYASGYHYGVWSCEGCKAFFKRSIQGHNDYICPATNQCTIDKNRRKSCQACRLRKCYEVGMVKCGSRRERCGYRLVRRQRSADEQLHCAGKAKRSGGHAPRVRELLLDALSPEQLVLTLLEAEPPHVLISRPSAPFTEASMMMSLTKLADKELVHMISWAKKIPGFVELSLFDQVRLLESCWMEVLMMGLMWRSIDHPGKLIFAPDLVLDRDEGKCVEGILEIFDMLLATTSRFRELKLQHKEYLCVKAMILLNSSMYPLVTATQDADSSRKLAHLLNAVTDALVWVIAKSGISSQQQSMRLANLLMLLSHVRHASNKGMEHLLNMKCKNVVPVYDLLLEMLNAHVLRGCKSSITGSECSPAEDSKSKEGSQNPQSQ

| Structure (SMILES) | IC50 [1] [nM] | Ratio IC50 [2] | IC50 [3] [nM] | IC50 [4] [nM] | other results |
| --- | --- | --- | --- | --- | --- |
| O=C(O)COc1ccc(C2=C(c3ccc(O)cc3)CCOc3cc(F)ccc32)cc1 | 634 | 0.054 | 34 | > 20000 | – |
| CCC(=C(c1ccc(O)cc1)c1ccc(OCCN(C)C)cc1)c1ccccc1 | – | – | – | 110 | – |
| Cc1ccc(N2CCN(C(=O)/C=C/c3ccc(C4=C(c5ccc(O)cc5)CCOc5cc(F)ccc54)cc3)CC2)cc1 | 48 | 4.3 | 203 | 1050 | – |
| CC(=O)/C=C/c1ccc(C2=C(c3ccc(O)cc3)CCOc3cc(F)ccc32)cc1 | 59 | 3 | 175 | 890 | IC50 [5]: 450 nM |
| CCN(CC)CCNC(=O)/C=C/c1ccc(C2=C(c3ccc(O)cc3)CCOc3cc(F)ccc32)cc1 | 1020 | 0.58 | 585 | 8800 | – |
| O=C(/C=C/c1ccc(C2=C(c3ccc(O)cc3)CCOc3cc(F)ccc32)cc1)Nc1ccccc1 | 11.7 | 0.087 | 0.94 | 1300 | – |
| COc1ccc2c(c1)OCCC(c1ccc(O)cc1)=C2c1ccc(/C=C/C(=O)O)cc1 | 23 | 5.3 | 119 | > 20000 | Activity [6]: 15.8%; IC50 [5]: > 1000 nM |
| O=C(/C=C/c1ccc(C2=C(c3ccc(O)cc3)CCOc3cc(F)ccc32)cc1)N1CCN(Cc2ccccc2)CC1 | 74 | 1 | 72 | 8400 | – |
| CCC(=C(c1ccc(O)cc1)c1ccc(/C=C/C(=O)O)cc1)c1ccccc1 | – | – | – | 1300 | IC50 [7]: 100 to 1000 nM |
| CCNC(=O)/C=C/c1ccc(C2=C(c3ccc(O)cc3)CCOc3cc(F)ccc32)cc1 | – | – | – | 700 | – |
| O=Cc1ccc(C2=C(c3ccc(O)cc3)CCOc3cc(F)ccc32)cc1 | 407 | – | 395 | – | – |
| O=C(O)CCCOc1ccc(C2=C(c3ccc(O)cc3)CCOc3cc(F)ccc32)cc1 | 147 | 0.008 | 1.23 | > 20000 | IC50 [8]: 430 nM; Activity [9]: Active; Activity [10]: Non-Toxic; Activity [11]: inactive; Activity [12]: 3.2% |
| COc1ccc2c(c1)OCCC(c1ccc(O)cc1)=C2c1ccc(OCC(=O)O)cc1 | 429 | 2.4 | 1010 | > 20000 | – |
| O=C(/C=C/c1ccc(C2=C(c3ccc(O)cc3)CCOc3cc(F)ccc32)cc1)N1CCCC1 | 67 | 0.038 | 2.4 | 14000 | – |
| CCN(CC)C(=O)/C=C/c1ccc(C2=C(c3ccc(O)cc3)CCOc3cc(F)ccc32)cc1 | 349 | 0.12 | 43 | 13000 | activity at 72 h, 100 µM [13]: 10%; IC50 [5]: 9.8 nM |
| O=C(O)/C=C/C=C/c1ccc(C2=C(c3ccc(O)cc3)CCOc3cc(F)ccc32)cc1 | 71.6 | 0.008 | 0.55 | 1600 | Activity [14]: Non-Toxic; Activity [9]: Active; Activity [11]: Active; Activity [15]: 50%; Activity [16]: Toxic |
| Oc1ccc(C2=C(c3ccc(/C=C/c4ccccc4)cc3)c3ccc(F)cc3OCC2)cc1 | 22400 | 0.6 | 14300 | 12000 | – |
| CN1CCN(C(=O)/C=C/c2ccc(C3=C(c4ccc(O)cc4)CCOc4cc(F)ccc43)cc2)CC1 | 57 | 6.3 | 354 | 480 | – |
| O=C(/C=C/c1ccc(C2=C(c3ccc(O)cc3)CCOc3cc(F)ccc32)cc1)N1CCNCC1 | 14 | 1.9 | 25 | 9500 | – |
| O=C(/C=C/c1ccc(C2=C(c3ccc(O)cc3)CCOc3cc(F)ccc32)cc1)c1ccccc1 | 104 | 4.2 | 447 | 970 | – |
| O=C(O)/C=C/c1ccc(C2=C(c3ccc(O)cc3)CCOc3cc(F)ccc32)cc1 | 14 | 5.2 | 72 | 260 | IC50 [5]: 1390 nM |
| O=C(O)/C=C/c1ccc(C2=C(c3ccc(O)cc3)CCOc3ccccc32)cc1 | 21 | 2.2 | 46 | 21000 | IC50 [5]: 670 nM |
| O=C(O)/C=C/c1ccc(C2=C(c3ccc(O)cc3)CCSc3cc(F)ccc32)cc1 | 4.1 | 0.8 | 3.1 | 95 | Activity [17]: 1.6%; IC50 [5]: 180 nM |
